From patent US20120059052A1, “PRENYLFLAVONOID FORMULATIONS” (BIOACTIVES, INC., priority 2005, published 2012)

Tests used:
endothelial cells = endothelial cells invading collagen gel, capillary-like tubes; cited from earlier work
Cyp1A1 = molecular target: T1, Cyp1A1 (Homo sapiens, UniProt P04798); conditions: cDNA-expressed human enzyme; cited from earlier work
T1 sequence (P04798 1-512): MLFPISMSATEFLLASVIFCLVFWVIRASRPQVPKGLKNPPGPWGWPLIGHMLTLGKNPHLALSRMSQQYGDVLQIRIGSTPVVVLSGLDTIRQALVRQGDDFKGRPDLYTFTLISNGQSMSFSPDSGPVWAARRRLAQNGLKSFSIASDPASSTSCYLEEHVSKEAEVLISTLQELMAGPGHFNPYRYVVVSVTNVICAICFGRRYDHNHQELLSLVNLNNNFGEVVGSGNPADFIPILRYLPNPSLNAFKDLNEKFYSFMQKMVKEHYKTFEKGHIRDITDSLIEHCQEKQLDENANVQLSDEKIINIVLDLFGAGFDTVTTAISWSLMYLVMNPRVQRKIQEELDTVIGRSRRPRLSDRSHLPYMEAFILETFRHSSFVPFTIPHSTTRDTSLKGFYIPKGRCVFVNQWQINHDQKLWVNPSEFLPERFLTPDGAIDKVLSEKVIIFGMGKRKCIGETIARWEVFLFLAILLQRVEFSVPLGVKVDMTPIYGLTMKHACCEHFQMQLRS

Cyp1B 1 = molecular target: T2, Cyp1B 1 (Homo sapiens, UniProt Q16678); conditions: cDNA-expressed human enzyme; cited from earlier work
T2 sequence (Q16678 1-543): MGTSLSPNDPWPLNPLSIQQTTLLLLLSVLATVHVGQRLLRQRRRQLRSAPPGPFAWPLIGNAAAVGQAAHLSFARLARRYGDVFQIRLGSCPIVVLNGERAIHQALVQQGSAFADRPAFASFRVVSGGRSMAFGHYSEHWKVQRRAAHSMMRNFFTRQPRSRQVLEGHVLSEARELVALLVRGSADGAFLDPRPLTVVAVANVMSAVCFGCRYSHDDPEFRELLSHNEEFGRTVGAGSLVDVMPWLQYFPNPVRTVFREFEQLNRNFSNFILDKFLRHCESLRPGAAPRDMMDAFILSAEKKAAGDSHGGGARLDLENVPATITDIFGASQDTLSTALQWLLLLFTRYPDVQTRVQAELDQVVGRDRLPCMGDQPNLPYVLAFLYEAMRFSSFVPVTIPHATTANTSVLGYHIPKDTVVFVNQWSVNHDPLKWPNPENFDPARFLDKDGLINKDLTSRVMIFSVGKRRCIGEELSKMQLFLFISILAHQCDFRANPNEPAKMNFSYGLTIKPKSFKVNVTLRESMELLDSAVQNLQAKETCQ

Cyp1A2 = molecular target: T3, Cyp1A2 (Homo sapiens, UniProt P05177); conditions: cDNA-expressed human enzyme; cited from earlier work
T3 sequence (P05177 1-516): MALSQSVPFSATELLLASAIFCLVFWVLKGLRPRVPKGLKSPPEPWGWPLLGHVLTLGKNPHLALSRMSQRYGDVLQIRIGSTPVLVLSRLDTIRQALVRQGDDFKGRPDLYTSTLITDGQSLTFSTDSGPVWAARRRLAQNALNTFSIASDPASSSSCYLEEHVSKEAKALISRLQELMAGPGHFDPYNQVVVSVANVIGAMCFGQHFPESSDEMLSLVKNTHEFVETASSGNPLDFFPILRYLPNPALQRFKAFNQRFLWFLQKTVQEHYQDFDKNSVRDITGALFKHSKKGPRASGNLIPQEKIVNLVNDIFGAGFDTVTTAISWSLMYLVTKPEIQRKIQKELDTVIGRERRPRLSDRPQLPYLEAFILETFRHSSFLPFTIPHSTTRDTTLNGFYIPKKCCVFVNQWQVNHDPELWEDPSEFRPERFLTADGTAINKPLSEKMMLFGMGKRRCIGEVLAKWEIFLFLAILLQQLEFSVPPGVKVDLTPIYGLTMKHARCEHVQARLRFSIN

[1] = oral doses, animal; cited from earlier work
HepG2 cells = assay: Incorporation of 14C-acetic acid into cholesterol in HepG2 cells; assay type: cell-based
Experimental: The incorporation of ^14C-acetic acid into cholesterol was examined in HepG2 cells. […] The IC50 was approximately 20 μM. In the same HepG2 cell assay system, atorvastatin (10 nM and 1 μM) inhibited acetate incorporation into cholesterol by 20% and 80% respectively.

[2] = cited from earlier work
HMG-CoA reductase = molecular target: T4, HMG-CoA reductase (Homo sapiens, UniProt P04035); assay: HMG-CoA reductase assay in isolated liver microsomes; assay type: biochemical
T4 construct: from tissue; host or cells: liver microsomes
T4 sequence (P04035 1-888): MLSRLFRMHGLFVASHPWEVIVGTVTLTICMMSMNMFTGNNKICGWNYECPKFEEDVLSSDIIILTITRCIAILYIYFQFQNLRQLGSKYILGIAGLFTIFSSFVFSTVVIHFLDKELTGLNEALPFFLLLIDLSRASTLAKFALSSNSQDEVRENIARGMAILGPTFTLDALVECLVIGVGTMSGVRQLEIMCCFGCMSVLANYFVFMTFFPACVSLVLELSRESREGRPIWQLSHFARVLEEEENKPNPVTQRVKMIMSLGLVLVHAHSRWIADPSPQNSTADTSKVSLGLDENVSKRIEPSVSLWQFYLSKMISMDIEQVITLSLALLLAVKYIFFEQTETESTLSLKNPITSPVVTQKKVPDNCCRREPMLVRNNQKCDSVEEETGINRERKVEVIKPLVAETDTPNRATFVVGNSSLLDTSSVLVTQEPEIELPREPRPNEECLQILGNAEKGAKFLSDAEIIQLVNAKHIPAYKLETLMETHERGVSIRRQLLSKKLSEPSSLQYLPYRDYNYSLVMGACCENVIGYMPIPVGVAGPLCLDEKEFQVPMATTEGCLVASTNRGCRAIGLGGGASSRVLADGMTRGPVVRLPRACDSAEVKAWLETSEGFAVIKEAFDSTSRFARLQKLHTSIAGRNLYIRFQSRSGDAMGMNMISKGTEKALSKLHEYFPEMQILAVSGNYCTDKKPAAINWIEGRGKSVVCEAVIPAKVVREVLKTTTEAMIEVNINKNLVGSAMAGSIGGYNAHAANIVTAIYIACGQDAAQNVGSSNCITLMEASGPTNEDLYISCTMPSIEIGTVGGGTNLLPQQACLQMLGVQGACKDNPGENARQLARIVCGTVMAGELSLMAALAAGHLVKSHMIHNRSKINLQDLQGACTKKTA
Experimental: HMG-CoA reductase assays were performed in which increasing concentrations of xanthohumol (1 μM to 100 μM) were added to isolated liver microsomes. Xanthohumol had no effect on HMG-CoA reductase activity. As a positive control, atorvastatin (10 nM and 1 μM) was tested in the same assay, which inhibited reductase activity by 58% and 87% respectively. The protocol followed was as published in Telford et al. ATVB 2002; 22: 1884-1891.

inducible COX-2 = molecular target: T5, inducible COX-2 (Homo sapiens, UniProt P35354); conditions: read-out: IC50, inhibition of COX-2; cited from earlier work
T5 sequence (P35354 18-604): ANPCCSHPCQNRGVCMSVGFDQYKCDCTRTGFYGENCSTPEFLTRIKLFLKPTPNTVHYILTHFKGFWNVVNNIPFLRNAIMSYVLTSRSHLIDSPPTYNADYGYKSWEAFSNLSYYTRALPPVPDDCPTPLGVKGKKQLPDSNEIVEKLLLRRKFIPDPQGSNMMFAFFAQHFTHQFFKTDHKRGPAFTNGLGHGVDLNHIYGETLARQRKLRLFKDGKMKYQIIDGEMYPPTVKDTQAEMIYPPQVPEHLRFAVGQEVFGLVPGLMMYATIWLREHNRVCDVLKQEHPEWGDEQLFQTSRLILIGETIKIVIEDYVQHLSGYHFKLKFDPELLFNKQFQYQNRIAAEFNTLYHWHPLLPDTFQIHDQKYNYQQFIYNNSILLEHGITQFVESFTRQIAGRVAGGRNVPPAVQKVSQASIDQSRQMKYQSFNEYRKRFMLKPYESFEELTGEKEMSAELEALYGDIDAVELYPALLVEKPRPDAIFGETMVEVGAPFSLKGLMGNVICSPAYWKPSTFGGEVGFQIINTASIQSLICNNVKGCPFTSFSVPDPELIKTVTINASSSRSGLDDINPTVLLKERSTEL

Caco-2 cell monolayers [3] = assay: Permeability across Caco-2 cell monolayers; assay type: in vitro ADME
Experimental: Percent Recovery=100×((Vr×Cr^final)+(Vd×Cd^final))/(Vd×C0)
• dCr/dt is the slope of the cumulative concentration in the receiver compartment versus time in μMs^−1. • Vr is the volume of the receiver compartment in cm^3. • Vd is the volume of the donor compartment in cm^3. • A is the area of the cell-free insert (1.13 cm^2 for 12-well Transwell). • Cr^final is the cumulative receiver concentration in μM at the end of the incubation period. • Cd^final is the concentration of the donor in μM at the end of the incubation period. • C0 is the initial concentration of the dosing solution in μM.
Each determination was performed in duplicate.

constitutive COX-1 = molecular target: T6, constitutive COX-1 (Ovis aries, UniProt P05979); conditions: read-out: IC50, inhibition of COX-1; cited from earlier work
T6 sequence (P05979 25-600): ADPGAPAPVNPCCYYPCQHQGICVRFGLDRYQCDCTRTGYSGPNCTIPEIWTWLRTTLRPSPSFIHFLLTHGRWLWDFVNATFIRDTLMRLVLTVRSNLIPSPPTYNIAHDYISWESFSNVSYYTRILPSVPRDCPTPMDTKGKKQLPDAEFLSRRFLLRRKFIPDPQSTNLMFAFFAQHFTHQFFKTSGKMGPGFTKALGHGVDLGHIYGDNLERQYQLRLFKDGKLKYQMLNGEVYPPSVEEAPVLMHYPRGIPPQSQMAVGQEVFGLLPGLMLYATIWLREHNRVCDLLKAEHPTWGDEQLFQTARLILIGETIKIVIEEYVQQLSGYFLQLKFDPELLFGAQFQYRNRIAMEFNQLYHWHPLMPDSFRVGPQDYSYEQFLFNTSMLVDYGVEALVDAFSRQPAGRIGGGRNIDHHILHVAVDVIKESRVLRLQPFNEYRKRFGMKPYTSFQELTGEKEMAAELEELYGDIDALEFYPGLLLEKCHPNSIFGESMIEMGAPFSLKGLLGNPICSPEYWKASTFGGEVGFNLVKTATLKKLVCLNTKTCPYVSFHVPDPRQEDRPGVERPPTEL

Caco-2 cell monolayers [4] = assay: Caco-2 plate certification with control compounds; assay type: in vitro ADME; conditions: TW12, passage 63, age 22 days
Experimental: To test the permeability of xanthohumol across Caco-2 cell monolayers, Caco-2 cell monolayers were grown to confluence on collagen-coated, microporous, polycarbonate membranes in 12-well Costar Transwell® plates. Details of the plates and their certification are shown below in Table 3. The test article was also the aqueous xanthohumol formulation, and the dosing concentration was 2 μM in the assay buffer (HBSSg) as in the previous example. Cell monolayers were dosed on the apical side (A-to-B) or basolateral side (B-to-A) and incubated at 37° C. with 5% CO2 in a humidified incubator. Samples were taken from the donor chamber at 120 minutes, and samples from the receiver chamber were collected at 60 and 120 minutes. Each determination was performed in duplicate. Lucifer yellow permeability was also measured for each monolayer after being subjected to the test article to ensure no damage was inflicted to the cell monolayers during the permeability experiment. All samples were assayed for Xanthohumol by LC/MS/MS using electrospray ionization. The apparent permeability (Papp), and percent recovery were calculated as described above.

[5] = human, Caco-2, 120 min, 2 μM, pH 7.4

## CC(C)=CCc1c(O)cc(O)c2c1O[C@H](c1ccc(O)cc1)CC2=O [8-prenylnaringenin]
Endothelial cells
  Effect on angiogenesis in vitro: inhibits angiogenesis
Cyp1A1
  Inhibition of Cyp1A1: strongly inhibit
Cyp1B 1
  Inhibition of Cyp1B1: strongly inhibit
Cyp1A2
  Inhibition of Cyp1A2: strongly inhibit

## COc1cc(O)c(CC=C(C)C)c(O)c1C(=O)/C=C/c1ccc(O)cc1 [Xanthohumol, xanthohumol]
[1]
  Bioavailability: very low bioavailability
Cyp1A1
  Inhibition of Cyp1A1: strongly inhibit
Cyp1B 1
  Inhibition of Cyp1B1: strongly inhibit
HepG2 cells; 0.5 μM to 100 μM
  Cholesterol synthesis inhibition: inhibited in a dose-responsive manner
HepG2 cells; Homo sapiens, read-out: IC50, cholesterol synthesis
  IC50: ~20 µM
HepG2 cells; concentrations below 500 nM
  Effect on incorporation of 14C-acetic acid into cholesterol: No affect
[2]
  Solubility in water: virtually insoluble
Cyp1A2
  Inhibition of Cyp1A2: strongly inhibit
HMG-CoA reductase; 1 μM to 100 μM, isolated liver microsomes
  Effect on HMG-CoA reductase activity: no effect
Inducible COX-2
  IC50: 42 µM
Caco-2 cell monolayers [3]; Caco-2
  Significant Efflux: No
Caco-2 cell monolayers [3]; [5]
  Papp, Average: 1.77 10^−6 cm/s
  Papp, Rep. 1: 0.94 10^−6 cm/s
Constitutive COX-1
  IC50: 17 µM

## CC(C)c1c(C(=O)Nc2ccccc2)c(-c2ccccc2)c(-c2ccc(F)cc2)n1CC[C@@H](O)C[C@@H](O)CC(=O)O [atorvastatin, reference compound]
HepG2 cells; Homo sapiens, 10 nM, read-out: Inhibition of acetate incorporation into cholesterol
  inhibition at 0.01 µM: 20%
HepG2 cells; Homo sapiens, 1 μM, read-out: Inhibition of acetate incorporation into cholesterol
  inhibition at 1 µM: 80%
HMG-CoA reductase; 10 nM
  inhibition at 0.01 µM: 58%
HMG-CoA reductase; 1 μM
  inhibition at 1 µM: 87%

## COc1cc(O)c(CC=C(C)C)c2c1C(=O)CC(c1ccc(O)cc1)O2 (stereo not drawn) [isoxanthohumol]
Cyp1A1
  Inhibition of Cyp1A1: strongly inhibit
Cyp1B 1
  Inhibition of Cyp1B1: strongly inhibit
Cyp1A2
  Inhibition of Cyp1A2: strongly inhibit

## Lucifer Yellow [reference compound]
Caco-2 cell monolayers [4]
  Papp: 0.13 ×10⁻⁶ cm/s
Caco-2 cell monolayers [3]; all monolayers, after exposure to test article
  Lucifer yellow Papp, post-experiment integrity control: < 0.8 ×10⁻⁶ cm/s
